# Reference: PMC4993559 (Journal of Experimental Pharmacology, 2016)
# Read-outs that look alike come from different tables or passages of the source.
# Experiments:
# [1] = target: T1, ROS1 (Homo sapiens, UniProt P08922); settings: read-out: IC50 (class); Momelotinib scale; cited from earlier work
# [2] = target: T2, c-src (Homo sapiens, UniProt P12931); settings: read-out: IC50 (class); Momelotinib scale; cited from earlier work
# [3] = target: T3, CSF1R (c-fms) (Homo sapiens, UniProt P07333); settings: read-out: IC50 (class); Momelotinib scale; cited from earlier work
# T3 sequence (P07333 20-972): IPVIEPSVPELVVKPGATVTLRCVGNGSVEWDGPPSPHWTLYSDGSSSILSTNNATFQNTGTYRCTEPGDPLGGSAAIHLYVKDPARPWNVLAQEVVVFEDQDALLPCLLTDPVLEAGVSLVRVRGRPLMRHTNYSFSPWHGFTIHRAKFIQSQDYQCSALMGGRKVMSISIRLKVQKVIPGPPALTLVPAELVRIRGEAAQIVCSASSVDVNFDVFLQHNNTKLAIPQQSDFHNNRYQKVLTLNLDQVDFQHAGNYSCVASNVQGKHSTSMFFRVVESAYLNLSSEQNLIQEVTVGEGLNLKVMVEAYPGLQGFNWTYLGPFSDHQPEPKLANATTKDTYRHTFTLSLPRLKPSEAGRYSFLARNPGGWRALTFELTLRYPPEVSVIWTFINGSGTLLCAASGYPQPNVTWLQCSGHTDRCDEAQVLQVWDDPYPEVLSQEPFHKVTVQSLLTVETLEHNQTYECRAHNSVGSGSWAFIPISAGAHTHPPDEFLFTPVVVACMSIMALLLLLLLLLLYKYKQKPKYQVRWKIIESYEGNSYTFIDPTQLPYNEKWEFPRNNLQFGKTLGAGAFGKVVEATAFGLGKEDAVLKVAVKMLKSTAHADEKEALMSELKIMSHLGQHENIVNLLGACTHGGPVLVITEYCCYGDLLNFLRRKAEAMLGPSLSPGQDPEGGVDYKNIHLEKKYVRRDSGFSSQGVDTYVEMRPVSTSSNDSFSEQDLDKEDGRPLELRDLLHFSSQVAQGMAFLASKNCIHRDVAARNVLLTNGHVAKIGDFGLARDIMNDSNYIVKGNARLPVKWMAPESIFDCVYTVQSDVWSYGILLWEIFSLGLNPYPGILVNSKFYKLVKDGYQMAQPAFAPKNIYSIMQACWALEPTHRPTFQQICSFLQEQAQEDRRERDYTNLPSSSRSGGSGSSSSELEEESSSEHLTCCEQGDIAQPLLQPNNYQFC
# [4] = target: T4, HIPK4 (Homo sapiens, UniProt Q8NE63); settings: read-out: IC50 (class); Momelotinib scale; cited from earlier work
# T4 sequence (Q8NE63 1-616): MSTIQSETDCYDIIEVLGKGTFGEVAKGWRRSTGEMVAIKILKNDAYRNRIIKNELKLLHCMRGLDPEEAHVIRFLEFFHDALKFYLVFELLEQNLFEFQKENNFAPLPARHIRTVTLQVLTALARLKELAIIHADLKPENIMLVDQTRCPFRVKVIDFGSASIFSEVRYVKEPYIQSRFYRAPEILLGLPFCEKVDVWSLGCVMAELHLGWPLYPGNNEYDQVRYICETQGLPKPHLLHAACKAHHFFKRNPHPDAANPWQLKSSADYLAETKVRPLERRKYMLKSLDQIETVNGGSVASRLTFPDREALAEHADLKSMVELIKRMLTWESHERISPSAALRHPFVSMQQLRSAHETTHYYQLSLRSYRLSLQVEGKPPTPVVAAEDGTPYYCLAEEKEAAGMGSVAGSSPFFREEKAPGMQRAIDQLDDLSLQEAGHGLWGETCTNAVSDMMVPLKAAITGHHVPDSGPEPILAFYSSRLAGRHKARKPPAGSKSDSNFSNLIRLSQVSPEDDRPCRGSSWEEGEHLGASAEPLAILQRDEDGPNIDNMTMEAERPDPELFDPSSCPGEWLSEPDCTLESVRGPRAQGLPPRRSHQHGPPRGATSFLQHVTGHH
# [5] = system: AML cell lines; settings: AML cell lines harboring various mutations; cited from earlier work
# [6] = target: T1, ROS1; test: HotSpot radioisotope filter-binding kinase assay; type: biochemical
# [7] = target: JAK1 (Homo sapiens, UniProt P23458); test: HotSpot radioisotope filter-binding kinase assay; type: biochemical
# Sequence of JAK1 (P23458 whole entry): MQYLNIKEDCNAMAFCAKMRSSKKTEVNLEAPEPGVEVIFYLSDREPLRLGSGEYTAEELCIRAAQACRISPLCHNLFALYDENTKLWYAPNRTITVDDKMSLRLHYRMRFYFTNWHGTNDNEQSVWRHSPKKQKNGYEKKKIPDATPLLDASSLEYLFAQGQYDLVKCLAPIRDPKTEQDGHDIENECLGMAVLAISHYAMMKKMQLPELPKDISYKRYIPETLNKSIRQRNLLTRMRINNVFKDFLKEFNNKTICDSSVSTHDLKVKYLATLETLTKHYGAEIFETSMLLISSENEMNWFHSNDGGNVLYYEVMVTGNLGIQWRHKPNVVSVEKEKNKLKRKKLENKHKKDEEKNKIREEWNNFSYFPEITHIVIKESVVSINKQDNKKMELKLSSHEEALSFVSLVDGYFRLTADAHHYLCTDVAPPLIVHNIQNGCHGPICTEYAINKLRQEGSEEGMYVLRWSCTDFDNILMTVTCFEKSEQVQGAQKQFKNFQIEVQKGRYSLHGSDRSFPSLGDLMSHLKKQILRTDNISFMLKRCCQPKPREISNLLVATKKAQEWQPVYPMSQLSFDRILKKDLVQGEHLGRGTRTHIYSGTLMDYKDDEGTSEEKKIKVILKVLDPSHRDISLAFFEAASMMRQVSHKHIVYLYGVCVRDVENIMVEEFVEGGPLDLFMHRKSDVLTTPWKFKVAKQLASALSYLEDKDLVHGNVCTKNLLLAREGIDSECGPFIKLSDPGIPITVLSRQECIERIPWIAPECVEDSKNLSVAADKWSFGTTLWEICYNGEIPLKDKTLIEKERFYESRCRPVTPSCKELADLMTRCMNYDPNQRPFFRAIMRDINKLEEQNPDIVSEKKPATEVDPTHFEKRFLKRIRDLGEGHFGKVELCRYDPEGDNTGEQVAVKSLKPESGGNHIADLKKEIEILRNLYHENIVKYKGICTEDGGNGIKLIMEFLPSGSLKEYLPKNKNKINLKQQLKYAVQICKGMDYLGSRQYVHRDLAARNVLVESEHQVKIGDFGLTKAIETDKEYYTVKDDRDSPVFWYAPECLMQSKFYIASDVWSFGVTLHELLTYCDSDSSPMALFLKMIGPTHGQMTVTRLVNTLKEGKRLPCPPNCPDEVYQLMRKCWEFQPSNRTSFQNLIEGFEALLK
# [8] = target: IRAK1 (Homo sapiens, UniProt P51617); test: HotSpot radioisotope filter-binding kinase assay; type: biochemical
# [9] = target: T3, CSF1R (c-fms); test: HotSpot radioisotope filter-binding kinase assay; type: biochemical
# [10] = system: phosphorylated IRAK1; settings: AML cells; cited from earlier work
# [11] = target: TYK2 (Homo sapiens, UniProt P29597); test: HotSpot radioisotope filter-binding kinase assay; type: biochemical
# [12] = system: primary CMML cells; settings: cited from earlier work
# [13] = target: c-kit (Homo sapiens, UniProt P10721); test: HotSpot radioisotope filter-binding kinase assay; type: biochemical
# [14] = target: T5, TNK1 (Homo sapiens, UniProt Q13470); test: HotSpot radioisotope filter-binding kinase assay; type: biochemical
# T5 sequence (Q13470 1-666): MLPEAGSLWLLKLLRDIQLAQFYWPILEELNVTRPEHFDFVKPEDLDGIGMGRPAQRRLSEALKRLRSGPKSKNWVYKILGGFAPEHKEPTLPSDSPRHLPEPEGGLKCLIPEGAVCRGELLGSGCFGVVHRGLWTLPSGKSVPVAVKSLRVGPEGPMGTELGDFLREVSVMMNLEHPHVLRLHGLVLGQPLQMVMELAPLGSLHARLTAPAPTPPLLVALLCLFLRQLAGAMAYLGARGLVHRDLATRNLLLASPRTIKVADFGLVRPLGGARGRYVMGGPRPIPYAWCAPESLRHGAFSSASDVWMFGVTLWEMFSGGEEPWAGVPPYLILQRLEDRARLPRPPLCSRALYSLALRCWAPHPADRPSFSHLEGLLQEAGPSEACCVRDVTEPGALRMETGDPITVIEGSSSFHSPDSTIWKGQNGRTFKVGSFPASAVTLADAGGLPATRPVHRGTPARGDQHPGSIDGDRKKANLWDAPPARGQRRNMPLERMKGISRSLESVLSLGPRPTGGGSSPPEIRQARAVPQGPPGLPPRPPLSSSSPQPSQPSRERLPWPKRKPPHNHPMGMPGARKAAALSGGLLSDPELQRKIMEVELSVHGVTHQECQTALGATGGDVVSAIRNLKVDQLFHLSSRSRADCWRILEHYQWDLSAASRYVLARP
# [15] = Steady-state peak plasma concentration after 400 mg daily; type: in vivo; settings: humans, calculated/simulated
# [16] = target: T4, HIPK4; test: HotSpot radioisotope filter-binding kinase assay; type: biochemical
# [17] = target: T2, c-src; test: HotSpot radioisotope filter-binding kinase assay; type: biochemical
# [18] = target: TRKC (Homo sapiens, UniProt Q16288); test: HotSpot radioisotope filter-binding kinase assay; type: biochemical
# [19] = IC50, recombinant kinase, 10 μM ATP
# T1 sequence (P08922 28-2347): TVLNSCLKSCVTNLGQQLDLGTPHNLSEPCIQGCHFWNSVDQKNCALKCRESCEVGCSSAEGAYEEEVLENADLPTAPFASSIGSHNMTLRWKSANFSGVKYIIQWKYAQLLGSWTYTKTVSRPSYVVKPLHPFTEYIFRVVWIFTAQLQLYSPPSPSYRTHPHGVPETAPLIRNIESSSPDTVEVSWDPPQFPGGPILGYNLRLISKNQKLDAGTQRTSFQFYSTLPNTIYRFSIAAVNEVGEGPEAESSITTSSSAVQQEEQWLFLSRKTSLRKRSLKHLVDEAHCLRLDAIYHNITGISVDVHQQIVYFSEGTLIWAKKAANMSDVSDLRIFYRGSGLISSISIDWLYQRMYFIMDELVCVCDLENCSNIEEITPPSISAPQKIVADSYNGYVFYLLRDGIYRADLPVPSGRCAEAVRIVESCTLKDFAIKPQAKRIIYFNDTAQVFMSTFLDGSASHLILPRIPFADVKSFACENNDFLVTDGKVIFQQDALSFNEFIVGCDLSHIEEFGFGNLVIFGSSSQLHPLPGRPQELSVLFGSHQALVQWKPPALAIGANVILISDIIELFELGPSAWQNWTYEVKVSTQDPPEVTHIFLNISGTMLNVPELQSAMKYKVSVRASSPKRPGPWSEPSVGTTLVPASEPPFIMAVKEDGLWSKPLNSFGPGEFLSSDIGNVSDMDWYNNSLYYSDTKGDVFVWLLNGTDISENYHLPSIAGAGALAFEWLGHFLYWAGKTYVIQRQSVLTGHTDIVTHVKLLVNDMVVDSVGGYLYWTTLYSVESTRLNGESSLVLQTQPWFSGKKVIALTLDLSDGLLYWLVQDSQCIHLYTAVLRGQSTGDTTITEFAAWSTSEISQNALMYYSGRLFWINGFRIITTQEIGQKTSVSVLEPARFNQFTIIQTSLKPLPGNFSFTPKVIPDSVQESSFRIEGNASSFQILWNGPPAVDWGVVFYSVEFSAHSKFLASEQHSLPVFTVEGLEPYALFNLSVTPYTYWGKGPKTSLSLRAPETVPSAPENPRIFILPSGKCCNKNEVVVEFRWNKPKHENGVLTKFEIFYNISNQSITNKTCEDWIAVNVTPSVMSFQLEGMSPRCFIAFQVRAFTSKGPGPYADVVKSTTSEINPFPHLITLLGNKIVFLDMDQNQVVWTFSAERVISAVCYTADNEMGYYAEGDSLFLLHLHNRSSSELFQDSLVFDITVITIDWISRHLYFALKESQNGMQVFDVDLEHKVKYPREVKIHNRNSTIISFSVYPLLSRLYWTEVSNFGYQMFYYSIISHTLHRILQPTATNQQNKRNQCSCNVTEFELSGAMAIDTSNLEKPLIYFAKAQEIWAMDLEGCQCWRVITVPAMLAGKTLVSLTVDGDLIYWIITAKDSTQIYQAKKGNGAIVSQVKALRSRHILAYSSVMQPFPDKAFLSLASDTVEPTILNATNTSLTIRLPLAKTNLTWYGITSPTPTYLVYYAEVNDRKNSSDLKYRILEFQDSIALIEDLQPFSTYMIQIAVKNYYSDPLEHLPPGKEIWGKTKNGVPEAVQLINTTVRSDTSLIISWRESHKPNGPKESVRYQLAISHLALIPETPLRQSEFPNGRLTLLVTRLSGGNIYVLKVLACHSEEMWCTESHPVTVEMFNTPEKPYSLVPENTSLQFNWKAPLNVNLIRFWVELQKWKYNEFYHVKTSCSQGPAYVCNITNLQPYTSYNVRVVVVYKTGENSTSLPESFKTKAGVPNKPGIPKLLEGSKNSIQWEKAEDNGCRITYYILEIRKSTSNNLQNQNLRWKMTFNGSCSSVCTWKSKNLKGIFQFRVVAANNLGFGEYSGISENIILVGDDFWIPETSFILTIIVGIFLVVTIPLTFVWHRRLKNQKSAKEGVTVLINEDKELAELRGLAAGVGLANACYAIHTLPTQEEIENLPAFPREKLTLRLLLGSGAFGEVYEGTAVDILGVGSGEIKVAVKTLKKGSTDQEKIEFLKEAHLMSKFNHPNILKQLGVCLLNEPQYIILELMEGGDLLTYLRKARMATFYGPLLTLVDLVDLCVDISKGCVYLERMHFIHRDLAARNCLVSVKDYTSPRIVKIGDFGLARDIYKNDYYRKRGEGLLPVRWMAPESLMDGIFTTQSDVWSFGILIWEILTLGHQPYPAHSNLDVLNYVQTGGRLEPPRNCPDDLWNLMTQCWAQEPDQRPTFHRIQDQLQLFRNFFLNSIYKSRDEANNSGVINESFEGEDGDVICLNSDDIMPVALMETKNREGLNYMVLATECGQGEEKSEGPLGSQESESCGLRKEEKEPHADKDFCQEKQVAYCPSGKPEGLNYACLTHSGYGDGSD
# T2 sequence (P12931 whole entry): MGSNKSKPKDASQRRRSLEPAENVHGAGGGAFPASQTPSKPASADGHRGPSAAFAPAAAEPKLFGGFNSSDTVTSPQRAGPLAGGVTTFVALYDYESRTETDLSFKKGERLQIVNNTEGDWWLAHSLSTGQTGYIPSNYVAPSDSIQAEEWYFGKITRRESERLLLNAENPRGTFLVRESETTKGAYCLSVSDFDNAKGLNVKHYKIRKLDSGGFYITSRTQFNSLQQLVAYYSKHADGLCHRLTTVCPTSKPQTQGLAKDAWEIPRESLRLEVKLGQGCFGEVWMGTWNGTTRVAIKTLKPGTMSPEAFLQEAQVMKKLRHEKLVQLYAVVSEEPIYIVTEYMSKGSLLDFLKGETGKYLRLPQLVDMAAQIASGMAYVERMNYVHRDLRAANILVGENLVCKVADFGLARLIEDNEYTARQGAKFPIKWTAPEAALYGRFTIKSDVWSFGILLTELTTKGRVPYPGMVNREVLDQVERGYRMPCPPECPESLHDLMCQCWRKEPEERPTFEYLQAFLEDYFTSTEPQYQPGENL
smiles,measurement,setting,value
N#CCNC(=O)c1ccc(-c2ccnc(Nc3ccc(N4CCOCC4)cc3)n2)cc1 [Momelotinib],IC50,[1],< 1 µM
same,IC50,[2],> 1 µM
same,IC50,[3],< 1 µM
same,IC50,[4],< 1 µM
"C1=C/COCc2cc(ccc2OCCN2CCCC2)Nc2nccc(n2)-c2cccc(c2)COC/1 [Pacritinib, 11-(2-pyrrolidin-1-yl-ethoxy)-14,19-dioxa-5,7,26-triaza-tetracyclo[19.3.1.1(2,6). 1(8,12)]heptacosa-1(25),2(26),3,5,8,10,12(27),16,21,23-decaene]",viability and survival,[5],reduces both the viability and survival
same,IC50,"[6]; IC50 (class), Pacritinib scale",< 0.025 µM
same,IC50,[6]; [19],0.0184 µM
same,IC50,[7],> 0.1 µM
same,remaining activity at 0.1 µM,[7]; read-out: kinase activity remaining (% control),82%
same,IC50,"[7]; recombinant kinase, 10 μM ATP",Indeterminate
same,IC50,"[8]; IC50 (class), Pacritinib scale",< 0.025 µM
same,IC50,[8]; [19],0.0136 µM
same,IC50,"[9]; IC50 (class), Pacritinib scale",0.025 to 0.05 µM
same,IC50,[9]; [19],< 0.05 µM
same,phosphorylation of IRAK1,[10],inhibits the phosphorylation of IRAK1
same,IC50,"[11]; IC50 (class), Pacritinib scale",0.025 to 0.05 µM
same,IC50,[11]; [19],0.027 µM
same,activity combined with 5-azacitidine,[12],synergistic activity
same,IC50,"[13]; IC50 (class), Pacritinib scale",0.025 to 0.05 µM
same,IC50,[13]; [19],0.0438 µM
same,IC50,"[14]; IC50 (class), Pacritinib scale",< 0.025 µM
same,IC50,[14]; [19],0.015 µM
same,total steady-state levels,[15],5 to 7 µM
same,mean peak plasma concentration of free drug at steady state,[15]; oral,approximately 200 nM
same,IC50,"[16]; IC50 (class), Pacritinib scale",< 0.025 µM
same,IC50,[16]; [19],0.0145 µM
same,IC50,"[17]; IC50 (class), Pacritinib scale",0.025 to 0.05 µM
same,IC50,[17]; [19],0.0467 µM
same,IC50,"[18]; IC50 (class), Pacritinib scale",< 0.025 µM
same,IC50,[18]; [19],0.0184 µM
